Measurements: patent US20210130826A1, “METHODS OF MODULATING ANTISENSE ACTIVITY” (IONIS PHARMACEUTICALS, INC., priority 2018, published 2021)

How the values were obtained:
Malat-1 [1] = experiment: Malat-1 RNA by RT-qPCR in MHT cells; autophagy modulator, then oligonucleotide by free uptake; format: cell-based, mouse
Experimental: MHT cells (a mouse hepatocellular carcinoma cell line) were plated at 20,000 cells/well and treated with DMSO (control) or an autophagy modulator for 24 hours at the concentrations indicated in Table 2 below. 3-MA, BafA1, AZD8055, and leupeptin are […]. […] Fourteen hours after the addition of autophagy modulators, 10 μM of a modified control oligonucleotide or of a modified antisense oligonucleotide was added by free uptake for ten hours. The modified oligonucleotides, shown in Table 1 below, are 3-10-3 cEt gapmers in which every internucleoside linkage is a phosphorothioate internucleoside linkage. The three 5′-terminal nucleosides and the three 3′-terminal nucleosides of each oligonucleotide each comprise a cEt modified sugar moiety. The remaining ten nucleosides of each oligonucleotide each comprise an unmodified, 2′-deoxy sugar moiety.
Using the primer probe sets described in Table 3 below, RT-qPCR analysis was performed to detect RNA levels of Malat-1, shown in Table 4 and markers of autophagy, (Rab7, LAMP2, Atg7, ULK1, ULK2, Atg5, Beclin, and c-Jun), shown in Table 5. Results were normalized to cyclophilin A levels. To control for global effects of autophagy modulators on gene expression, Malat-1 RNA levels after treatment with an antisense oligonucleotide and an autophagy modulator were normalized to Malat-1 RNA levels in cells treated with control Compound No. 549148 and the same autophagy modulator.
MHT cells were plated at 20,000 cells/well and treated with DMSO (control) or an autophagy modulator for 24 hours, at the concentrations indicated Table 7 below. Fourteen hours after the addition of autophagy modulator, control or antisense oligonucleotides (see Table 6) were added at 1 μM, 2.5 μM, 5 μM, or 10 μM by free uptake for ten hours. The modified oligonucleotides, shown in Table 6 below, are 5-10-5 MOE gapmers in which every internucleoside linkage is a phosphorothioate internucleoside linkage. The five 5′-terminal nucleosides and the five 3′-terminal nucleosides of each oligonucleotide each comprise a 2′-MOE modified sugar moiety. The remaining ten nucleosides of each oligonucleotide each comprise an unmodified, 2′-deoxy sugar moiety.
RT-qPCR analysis was performed to detect RNA levels of Malat-1 using primer probe set 15877 (described in Example 1). In order to control for global effects of autophagy modulators on gene expression, Malat-1 RNA levels after treatment with an antisense oligonucleotide and an autophagy modulator were normalized to Malat-1 RNA levels in cells treated with control Compound No. 141923 and the same autophagy modulator. Each table below represents results from an individual assay.

Malat-1 [2] = experiment: MALAT-1 RNA in mouse liver by RT-qPCR; format: in vivo
Experimental: The following experiments were performed to determine if the effects of autophagy modulators on antisense activity in vitro can be observed in vivo. […] Mice were sacrificed at 24 hours after administration of the modified oligonucleotide and tissues were collected for analysis. […] Atg7 mRNA levels are a marker of the induction of autophagy in treated mouse livers. Results are presented as percent change of RNA, relative to PBS control treated with DMSO, normalized to mouse cyclophilin A measured using mouse primer probe set Cyclophilin-A (forward sequence [NT], designated herein as SEQ ID NO: 38; reverse sequence [NT], designated herein as SEQ ID NO: 39; probe sequence [NT], designated herein as SEQ ID NO: 40). […] Following administration of modified oligonucleotide, groups of mice were either allowed free access to chow (control) or fasted overnight (16 hr fast). Mice were sacrificed at 16 hours after administration of the modified oligonucleotide and tissues were collected for analysis. […] Atg7 mRNA levels are a marker of the induction of autophagy in treated mouse livers. Results are presented in Table 33 relative to mice treated with PBS and allowed normal access to chow. […] Mice were sacrificed at 24 hours after administration of the modified oligonucleotide and tissues were collected for analysis. […] Atg7 mRNA levels are a marker of the induction of autophagy in treated mouse livers. […] RNA was extracted from liver tissue for real-time RTPCR analysis of MALAT1 RNA expression. Primer probe set 15877 was used to measure mouse MALAT1 RNA levels. Results are presented as percent change of RNA, relative to PBS control, normalized to mouse cyclophilin A measured using mouse primer probe set Cyclophilin-A. […] RNA was extracted from liver tissue for real-time RTPCR analysis of MALAT1 RNA expression. Primer probe set 15877 was used to measure mouse MALAT1 RNA levels. Results are presented as percent change of RNA, relative to PBS control, normalized to mouse cyclophilin A measured using mouse primer probe set Cyclophilin-A.

SMILES: COc1ccc(-c2ccc3c(N4CCOC[C@@H]4C)nc(N4CCOC[C@@H]4C)nc3n2)cc1CO [AZD8055]
- effect of autophagy modulator on modified oligonucleotide activity (in words) (Malat-1 [1]; MOE gapmer 399462, relative to DMSO): significantly enhanced modified oligonucleotide activity
- effect of autophagy modulator on antisense activity (in words) (Malat-1 [1]; cEt gapmer 556089, relative to DMSO): significantly enhanced antisense activity
- Malat-1 level (% relative to PBS/DMSO-treated mice) (Malat-1 [2]; Table 31, mouse liver 24 h, oligonucleotide 5 mg/kg, AZD8055 5 mg/kg at 0, 12, 22 h): 121%
- effect on ASO activity in vivo (in words) (Malat-1 [2]; mouse liver, 399462 5 mg/kg, AZD8055 5 mg/kg): greater Malat1 RNA reduction
